Source: patent publication US12522564B2, “Polymorphs of elafibranor” (GENFIT, priority 2021, dated 2026)

What was measured:
[1] = tested on: animal disease models; conditions: cited from earlier work
[2] = up to 2-year carcinogenicity studies; cited from earlier work
[3] = tested on: patients and healthy volunteers; conditions: over 800 patients and healthy volunteers; cited from earlier work
[4] = Saturation concentration of elafibranor in the crystallization solvent; format: physicochemical; conditions: room temperature

saturation concentration of elafibranor in the solvent ([4]; N,N-dimethylacetamide): 11.9 mg/mL
saturation concentration of elafibranor in the solvent ([4]; ethanol): 28.7 mg/mL
saturation concentration of elafibranor in the solvent ([4]; methanol): 17.7 mg/mL
Structure (SMILES): CSc1ccc(C(=O)/C=C/c2cc(C)c(OC(C)(C)C(=O)O)c(C)c2)cc1 [Elafibranor, 2-(2,6-dimethyl-4-{3-[4-(methylsulfanyl)phenyl]-3-oxopropen-1-yl}phenoxy)-2-methylpropanoic acid]
histological NASH parameters (steatosis, inflammation, fibrosis) [1]: efficacy
safety in full toxicological package [2]: absence of safety concern
HDL-C levels [3]: increase
insulin sensitivity and glucose homeostasis [3]: improvement
markers of liver dysfunction, including ALAT, ASAT, γGT, ALP [3]: improvement
plasma triglycerides and LDL-C [3]: decrease
